Source: patent US4258185A, “Pyridazinone compounds” (Yoshitomi Pharmaceutical Industries, Ltd., priority 1980, dated 1981)
Counter-ions that a name gives are not always drawn.

Key:
[1] = test system: spontaneously hypertensive rats; assay: Antihypertensive activity in spontaneously hypertensive rats (tail blood pressure); assay type: in vivo, rat; details: po, decrease of maximum blood pressure at 5 hours after treatment
Procedure: (§1) The citrated blood was obtained 2 hours after the oral treatment with test compounds. The platelet aggregation of platelet rich-plasma was induced by addition of 1.5×10^-5 M adenosine diphosphate (final concentration) and was measured with a Born type six channel aggregometer (G.V.R. Born, J. Physiol. 162, 67 (1962)). […] II. Antihypertensive activity in spontaneously hypertensive rats
A group of 5 spontaneously hypertensive rats (300-350 g) was used. Tail blood pressure was determined by a rat tail manometer (NARCO, PE-300) without anesthesia immediately before and 5 hours after the oral treatment with test compounds. The rat was warmed at 40° C. for 10 minutes. The apparatus detects blood flow pulses in the tail by a pulse sensor. The arterial blood flow was interrupted by applying pressure to the tail through a pneumatic cuff. The blood flow reappeared when the cuff pressure was decreased. The value was approximately equal to the maximum blood pressure.

platelet aggregation [2] = assay: Inhibitory activity on platelet aggregation in rabbits (ADP-induced, after oral treatment); assay type: in vivo; details: Oryctolagus cuniculus, 2 hours after oral treatment, 1.5×10^-5 M adenosine diphosphate, ± SE, read-out: Percent inhibition of platelet aggregation, Rabbit
Procedure: (§2) I. Inhibitory activity on platelet aggregation in rats and rabbits
as §1

platelet aggregation [3] = assay: Inhibitory activity on platelet aggregation in rats (ADP-induced, after oral treatment); assay type: in vivo; details: Rattus norvegicus, 2 hours after oral treatment, 1.5×10^-5 M adenosine diphosphate, read-out: Percent inhibition of platelet aggregation, Rat
Procedure: as §2, §1

| SMILES | Decrease of tail blood pressure in SHR ([1]; 3 mg/kg) | Decrease of tail blood pressure in SHR ([1]; 30 mg/kg) | inhibition at 3 mg/kg (platelet aggregation [2]) | inhibition at 3 mg/kg (platelet aggregation [3]) | other results |
| --- | --- | --- | --- | --- | --- |
| CC(=O)OCC1CC(=O)NN=C1c1ccc2c(c1)CCC(=O)N2C (stereo not drawn) [Compound B, 6-(5-Acetoxymethyl-3-oxo-2,3,4,5-tetrahydropyridazin-6-yl)-1-methyl-1,2,3,4-tetrahydroquinolin-2-one] | 31 mmHg | 62 mmHg | 85 ± 6% | 51% |  |
| CC1CC(=O)NN=C1c1ccc2c(c1)C(C)(C)CC(=O)N2C (stereo not drawn) [Compound C, 6-(5-Methyl-3-oxo-2,3,4,5-tetrahydropyridazin-6-yl)-1,4,4-trimethyl-1,2,3,4-tetrahydroquinolin-2-one] | 48 mmHg | 63 mmHg | 93 ± 1% | 59% |  |
| CC1CC(=O)NN=C1c1ccc2c(c1)C(C)CC(=O)N2C (stereo not drawn) [Compound D, 6-(5-Methyl-3-oxo-2,3,4,5-tetrahydropyridazin-6-yl)-1,4-dimethyl-1,2,3,4-tetrahydroquinolin-2-one] | 71 mmHg |  |  |  | Decrease of tail blood pressure in SHR ([1]; 0.3 mg/kg): 16 mmHg; inhibition at 0.3 mg/kg (platelet aggregation [2]; 0.3 mg/kg): 78 ± 6%; inhibition at 0.1 mg/kg (platelet aggregation [3]; 0.1 mg/kg): 38% |
| CN1C(=O)CC(C)(C)c2cc(C3=NNC(=O)CC3CO)ccc21 (stereo not drawn) [Compound E, 6-(5-Hydroxymethyl-3-oxo-2,3,4,5-tetrahydropyridazin-6-yl)-1,4,4-trimethyl-1,2,3,4-tetrahydroquinolin-2-one] |  |  |  |  | inhibition at 30 mg/kg (platelet aggregation [2]; 30 mg/kg): 48 ± 16%; inhibition at 10 mg/kg (platelet aggregation [3]; 10 mg/kg): 43% |
| CN1C(=O)CCc2cc(C3=NNC(=O)CC3CO)ccc21 (stereo not drawn) [Compound F, 6-(5-Hydroxymethyl-3-oxo-2,3,4,5-tetrahydropyridazin-6-yl)-1-methyl-1,2,3,4-tetrahydroquinolin-2-one] |  | 92 mmHg |  | 62% |  |
| CCC1CC(=O)NN=C1c1ccc2c(c1)CCC(=O)N2CC (stereo not drawn) [Compound G, 6-(5-Ethyl-3-oxo-2,3,4,5-tetrahydropyridazin-6-yl)-1-ethyl-1,2,3,4-tetrahydroquinolin-2-one] |  |  |  | 34% |  |
| CCN1C(=O)CCc2cc(C3=NNC(=O)CC3CO)ccc21 (stereo not drawn) [Compound H, 6-(5-Hydroxymethyl-3-oxo-2,3,4,5-tetrahydropyridazin-6-yl)-1-ethyl-1,2,3,4-tetrahydroquinolin-2-one] |  |  |  | 46% |  |
| CCN1C(=O)CCc2cc(C3=NNC(=O)CC3COC(C)=O)ccc21 (stereo not drawn) [Compound I, 6-(5-Acetoxymethyl-3-oxo-2,3,4,5-tetrahydropyridazin-6-yl)-1-ethyl-1,2,3,4-tetrahydroquinolin-2-one] |  | 47 mmHg |  | 46% |  |
| CCN1C(=O)CCc2cc(C3=NNC(=O)CC3C)ccc21 (stereo not drawn) [Compound J, 6-(5-Methyl-3-oxo-2,3,4,5-tetrahydropyridazin-6-yl)-1-ethyl-1,2,3,4-tetrahydroquinolin-2-one] |  |  |  | 35% |  |
| CC1CC(=O)N(CCN2CCOCC2)N=C1c1ccc2c(c1)CCC(=O)N2C (stereo not drawn) [Compound K, 6-[5-Methyl-2-(2-morpholinoethyl)-3-oxo-2,3,4,5-tetrahydropyridazin-6-yl]-1-methyl-1,2,3,4-tetrahydroquinolin-2-one hydrochloride hemihydrate] | 45 mmHg |  | 75 ± 8% | 51% |  |
